Results taken from PubChem BioAssay AID1259411 (Chemical Carcinogenesis Research Information System (CCRIS), 2018).
Active and inactive are the calls of the source. The rule behind the calls is not given here.

Test system: rodent carcinogenicity bioassays, tumor incidence
Assay: CCRIS carcinogenicity studies
Conditions: Species: MOUSE
How it was run: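 NCI-built, expert-reviewed records of carcinogenicity and related test outcomes (mutagenicity, tumor promotion/inhibition) compiled from published and report sources, historical span 1985-2011, not updated.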

c1ccc2c(c1)cc1ccc3cccc4ccc2c1c34
carcinogen call (Strain/Sex: C3H/MALE, Route: DERMAL, Dose: 0.15-470 UG, 3/WK FOR LIFE, Tumor Site: Type of Lesion: INTEGUMENTARY SYSTEM (SKIN)): active; positive | carcinogen call (Strain/Sex: C3H/MALE, Route: SUBCUTANEOUS, Dose: 0.00195-8.0 MG, SINGLE DOSE, Tumor Site: Type of Lesion: INJECTION SITE: SARCOMA): active; positive | carcinogen call (Strain/Sex: C3H, Route: DERMAL, Dose: 0.00002-0.02%, 3/WK FOR UP TO 80 WK, Tumor Site: Type of Lesion: INTEGUMENTARY SYSTEM (SKIN)): active; positive | carcinogen call (Strain/Sex: C57BL/FEMALE, Route: INTRATRACHEAL, Dose: 0, 1 MG ON CHARCOAL POWDER INSTILLED 8 TIMES (STUDY DURATION: 13 WK), Tumor Site: Type of Lesion: LUNG: SQUAMOUS CELL CARCINOMA OR ADENOCARCINOMA): active; positive | carcinogen call (Strain/Sex: C57BL/FEMALE, Route: SUBCUTANEOUS, Dose: 0, 0.5, 1 MG IN 1% AQUEOUS GELATIN INJECTED IN THE SCAPULAR REGION OF NEWBORN MICE ONCE (STUDY DURATION: 9 WK), Dose: 0, 0.5, 1 MG IN 1% AQUEOUS GELATIN INJECTED IN THE SCAPULAR REGION OF NEWBORN MICE ONCE (STUDY DURATION: 9 WK)): inactive; negative | carcinogen call (Strain/Sex: C57BL/MALE, Route: SUBCUTANEOUS, Dose: 0, 0.5, 1 MG IN 1% AQUEOUS GELATIN INJECTED IN THE SCAPULAR REGION OF NEWBORN MICE ONCE (STUDY DURATION: 9 WK), Dose: 0, 0.5, 1 MG IN 1% AQUEOUS GELATIN INJECTED IN THE SCAPULAR REGION OF NEWBORN MICE ONCE (STUDY DURATION: 9 WK)): inactive; negative | carcinogen call (Strain/Sex: C57BL, Route: DERMAL, Dose: 0.0001-0.5%, 3/WK, Tumor Site: Type of Lesion: INTEGUMENTARY SYSTEM (SKIN)): active; positive | carcinogen call (Strain/Sex: C57BL, Route: SUBCUTANEOUS, Dose: 0.00004, 0.0004, 0.004, 0.04 MG, SINGLE DOSE, Tumor Site: Type of Lesion: INJECTION SITE: SARCOMA): active; positive | carcinogen call (Strain/Sex: C57BR/CDJ/FEMALE, Route: SUBCUTANEOUS, Dose: 0, 0.5, 1 MG IN 1% AQUEOUS GELATIN INJECTED IN THE SCAPULAR REGION OF NEWBORN MICE ONCE (STUDY DURATION: 9 WK), Dose: 0, 0.5, 1 MG IN 1% AQUEOUS GELATIN INJECTED IN THE SCAPULAR REGION OF NEWBORN MICE ONCE (STUDY DURATION: 9 WK)): inactive; negative | carcinogen call (Strain/Sex: C57BR/CDJ/MALE, Route: SUBCUTANEOUS, Dose: 0, 0.5, 1 MG IN 1% AQUEOUS GELATIN INJECTED IN THE SCAPULAR REGION OF NEWBORN MICE ONCE (STUDY DURATION: 9 WK), Dose: 0, 0.5, 1 MG IN 1% AQUEOUS GELATIN INJECTED IN THE SCAPULAR REGION OF NEWBORN MICE ONCE (STUDY DURATION: 9 WK)): inactive; negative | carcinogen call (Strain/Sex: CAF1, Route: DERMAL, Dose: 0.0005, 0.001, 0.5%, 3/WK, Tumor Site: Type of Lesion: INTEGUMENTARY SYSTEM (SKIN): PAPILLOMA): active; positive | carcinogen call (Strain/Sex: CFW/MALE, FEMALE, Route: ORAL, Dose: 30-250 PPM IN DIET FOR 70-197 D, Tumor Site: Type of Lesion: STOMACH): active; positive | carcinogen call (Strain/Sex: CFW/MALE, FEMALE, Route: ORAL, Dose: 250 PPM IN DIET FOR 1-30 D, OBSERVED UNTIL 103-107 D, Tumor Site: Type of Lesion: FORESTOMACH): active; positive | carcinogen call (Strain/Sex: CFW, Route: SUBCUTANEOUS, Dose: 0.001-2 MG, SINGLE DOSE, Tumor Site: Type of Lesion: INJECTION SITE: FIBROSARCOMA): active; positive | carcinogen call (Strain/Sex: DBA/2/FEMALE, Route: INTRATRACHEAL, Dose: 0, 1 MG ON CHARCOAL POWDER INSTILLED 8 TIMES (STUDY DURATION: 13 WK)): inactive; negative | carcinogen call (Strain/Sex: EU-PIM-1/MALE, Route: GAVAGE, Dose: 0, 4.3, 13, 39 MG/KG BW IN 0.1 ML SOY OIL 3/WK FOR 13 WK (STUDY DURATION: 291 D), Dose: 0, 4.3, 13, 39 MG/KG BW IN 0.1 ML SOY OIL 3/WK FOR 13 WK (STUDY DURATION: 291 D), Tumor Site: Type of Lesion: LYMPHATIC SYSTEM: LYMPHOMA, FORESTOMACH: TUMOR): active; positive | carcinogen call (Strain/Sex: ICR/FEMALE, Route: INTRAPERITONEAL, Dose: 0, 59.5 UG TOTAL DOSE (8.5 UG/5 µL, 17 UG/10 µL, 34 UG/20 µL DMSO ON DAYS 1, 8 AND 15) ADMINISTERED TO NEWBORN ANIMALS (, Tumor Site: Type of Lesion: LUNG: ADENOMA): active; positive | carcinogen call (Strain/Sex: ICR/MALE, Route: INTRAPERITONEAL, Dose: 0, 59.5 UG TOTAL DOSE (8.5 UG/5 µL, 17 UG/10 µL, 34 UG/20 µL DMSO ON DAYS 1, 8 AND 15) ADMINISTERED TO NEWBORN ANIMALS (, Tumor Site: Type of Lesion: LUNG: ADENOMA): active; positive | carcinogen call (Strain/Sex: N:GP(S)/FEMALE, Route: INTRATRACHEAL, Dose: 0, 1 MG ON CHARCOAL POWDER INSTILLED 8 TIMES (STUDY DURATION: 13 WK)): inactive; negative | carcinogen call (Strain/Sex: N:GP(S)/FEMALE, Route: SUBCUTANEOUS, Dose: 0, 40, 62.5, 125, 250, 500, 1000 UG FOR 9 WK (STUDY DURATION: 9 WK), Dose: 0, 40, 62.5, 125, 250, 500, 1000 UG FOR 9 WK (STUDY DURATION: 9 WK), Tumor Site: Type of Lesion: LUNG: ADENOMA): active; positive | carcinogen call (Strain/Sex: N:GP(S)/MALE, Route: SUBCUTANEOUS, Dose: 0, 40, 62.5, 125, 250, 500, 1000 UG FOR 9 WK (STUDY DURATION: 9 WK), Dose: 0, 40, 62.5, 125, 250, 500, 1000 UG FOR 9 WK (STUDY DURATION: 9 WK), Tumor Site: Type of Lesion: LUNG: ADENOMA): active; positive
